Assay results taken from the supplement of paper PMC10307832.

Tests used:
Experiment in all cases: relative viability (nuclei count vs DMSO), 5 days (fraction); higher = more cells survive
[1] = tested on: NCI-H2023
Summary of the method: (§1)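 Values are medians from duplicate plates. Each reflects relative viability, defined as the nuclei count of treated wells over that of vehicle wells. Lung cancer cell lines in 1536-well plates were pin-tool dosed one day after seeding with one drug alone or with a fixed anchor-drug dose plus five library-drug doses (not always all listed) in √10 steps, then fixed, stained and imaged at 4× after 5 days.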

[2] = tested on: NCI-H23
Summary of the method: as §1

[3] = tested on: HOP-62
Summary of the method: as §1

[4] = tested on: NCI-H322M
Summary of the method: as §1

[5] = tested on: NCI-H441
Summary of the method: as §1

[6] = tested on: NCI-H650
Summary of the method: as §1

[7] = tested on: NCI-H2009
Summary of the method: as §1

[8] = tested on: NCI-H1792
Summary of the method: as §1

[9] = tested on: NCI-H727
Summary of the method: as §1

[10] = tested on: NCI-H2170
Summary of the method: as §1

[11] = tested on: NCI-H1437
Summary of the method: as §1

[12] = tested on: NCI-H1755
Summary of the method: as §1

[13] = tested on: UMC-11
Summary of the method: as §1

[14] = tested on: HCC-78
Summary of the method: as §1

[15] = tested on: LCLC-97TM1
Summary of the method: as §1

[16] = tested on: LOU-NH91
Summary of the method: as §1

[17] = tested on: NCI-H1355
Summary of the method: as §1

[18] = tested on: RERF-LC-KJ
Summary of the method: as §1

[19] = tested on: ChaGo-K-1
Summary of the method: as §1

[20] = tested on: SK-MES-1
Summary of the method: as §1

[21] = tested on: NCI-H2085
Summary of the method: as §1

[22] = tested on: NCI-H2405
Summary of the method: as §1

O=C(O)CCCCC(CCSCc1ccccc1)SCc1ccccc1 (centres undefined) [CPI-613] + CC(=O)Nc1cccc(-n2c(=O)n(C3CC3)c(=O)c3c(Nc4ccc(I)cc4F)n(C)c(=O)c(C)c32)c1 [Trametinib] (partner 0.02 µM)
relative viability ([1]; first compound 5 µM): 0.57 | relative viability ([1]; first compound 15.81 µM): 0.605 | relative viability ([1]; first compound 50 µM): 0.499 | relative viability ([1]; first compound 158.11 µM): 0.0445 | relative viability ([1]; first compound 500 µM): 0.0048 | relative viability ([2]; first compound 5 µM): 0.394 | relative viability ([2]; first compound 15.81 µM): 0.25 | relative viability ([2]; first compound 50 µM): 0.393 | relative viability ([2]; first compound 158.11 µM): 0.11 | relative viability ([2]; first compound 500 µM): 0.0106 | relative viability ([3]; first compound 5 µM): 0.394 | relative viability ([3]; first compound 15.81 µM): 0.402 | relative viability ([3]; first compound 50 µM): 0.351 | relative viability ([3]; first compound 158.11 µM): 0.267 | relative viability ([3]; first compound 500 µM): 0.129 | relative viability ([4]; first compound 5 µM): 0.427 | relative viability ([4]; first compound 15.81 µM): 0.485 | relative viability ([4]; first compound 50 µM): 0.454 | relative viability ([4]; first compound 158.11 µM): 0.516 | relative viability ([4]; first compound 500 µM): 0.514 | relative viability ([5]; first compound 5 µM): 0.426 | relative viability ([5]; first compound 15.81 µM): 0.429 | relative viability ([5]; first compound 50 µM): 0.343 | relative viability ([5]; first compound 158.11 µM): 0.322 | relative viability ([5]; first compound 500 µM): 0.003 | relative viability ([6]; first compound 5 µM): 0.969 | relative viability ([6]; first compound 15.81 µM): 0.994 | relative viability ([6]; first compound 50 µM): 0.849 | relative viability ([6]; first compound 158.11 µM): 0.929 | relative viability ([6]; first compound 500 µM): 0.889 | relative viability ([7]; first compound 5 µM): 0.319 | relative viability ([7]; first compound 15.81 µM): 0.257 | relative viability ([7]; first compound 50 µM): 0.302 | relative viability ([7]; first compound 158.11 µM): 0.081 | relative viability ([7]; first compound 500 µM): 0.027 | relative viability ([8]; first compound 5 µM): 0.381 | relative viability ([8]; first compound 15.81 µM): 0.372 | relative viability ([8]; first compound 50 µM): 0.355 | relative viability ([8]; first compound 158.11 µM): 0.291 | relative viability ([8]; first compound 500 µM): 0.0761 | relative viability ([9]; first compound 5 µM): 0.393 | relative viability ([9]; first compound 15.81 µM): 0.389 | relative viability ([9]; first compound 50 µM): 0.396 | relative viability ([9]; first compound 158.11 µM): 0.374 | relative viability ([9]; first compound 500 µM): 0.339 | relative viability ([10]; first compound 5 µM): 0.95 | relative viability ([10]; first compound 15.81 µM): 0.968 | relative viability ([10]; first compound 50 µM): 0.892 | relative viability ([10]; first compound 158.11 µM): 0.686 | relative viability ([10]; first compound 500 µM): 0.546 | relative viability ([11]; first compound 5 µM): 0.49 | relative viability ([11]; first compound 15.81 µM): 0.431 | relative viability ([11]; first compound 50 µM): 0.467 | relative viability ([11]; first compound 158.11 µM): 0.0999 | relative viability ([11]; first compound 500 µM): 0.0568 | relative viability ([12]; first compound 5 µM): 0.712 | relative viability ([12]; first compound 15.81 µM): 0.775 | relative viability ([12]; first compound 50 µM): 0.75 | relative viability ([12]; first compound 158.11 µM): 0.702 | relative viability ([12]; first compound 500 µM): 0.69 | relative viability ([13]; first compound 5 µM): 0.632 | relative viability ([13]; first compound 15.81 µM): 0.703 | relative viability ([13]; first compound 50 µM): 0.437 | relative viability ([13]; first compound 158.11 µM): 0.495 | relative viability ([13]; first compound 500 µM): 0.0937 | relative viability ([14]; first compound 15.81 µM): 0.729 | relative viability ([14]; first compound 50 µM): 0.788 | relative viability ([14]; first compound 158.11 µM): 0.714 | relative viability ([14]; first compound 500 µM): 0.716 | relative viability ([15]; first compound 5 µM): 0.202 | relative viability ([15]; first compound 15.81 µM): 0.162 | relative viability ([15]; first compound 50 µM): 0.153 | relative viability ([15]; first compound 158.11 µM): 0.0713 | relative viability ([15]; first compound 500 µM): 0.0622 | relative viability ([16]; first compound 5 µM): 0.767 | relative viability ([16]; first compound 15.81 µM): 0.723 | relative viability ([16]; first compound 50 µM): 0.775 | relative viability ([16]; first compound 158.11 µM): 0.775 | relative viability ([16]; first compound 500 µM): 0.674 | relative viability ([17]; first compound 5 µM): 0.44 | relative viability ([17]; first compound 15.81 µM): 0.409 | relative viability ([17]; first compound 50 µM): 0.42 | relative viability ([17]; first compound 158.11 µM): 0.27 | relative viability ([17]; first compound 500 µM): 0.112 | relative viability ([18]; first compound 5 µM): 0.76 | relative viability ([18]; first compound 15.81 µM): 0.878 | relative viability ([18]; first compound 50 µM): 0.845 | relative viability ([18]; first compound 158.11 µM): 0.458 | relative viability ([18]; first compound 500 µM): 0.44 | relative viability ([19]; first compound 5 µM): 0.853 | relative viability ([19]; first compound 15.81 µM): 0.876 | relative viability ([19]; first compound 50 µM): 0.847 | relative viability ([19]; first compound 158.11 µM): 0.29 | relative viability ([19]; first compound 500 µM): 0.391 | relative viability ([20]; first compound 5 µM): 0.534 | relative viability ([20]; first compound 15.81 µM): 0.49 | relative viability ([20]; first compound 50 µM): 0.523 | relative viability ([20]; first compound 158.11 µM): 0.201 | relative viability ([20]; first compound 500 µM): 0.132 | relative viability ([21]; first compound 5 µM): 0.664 | relative viability ([21]; first compound 15.81 µM): 0.555 | relative viability ([21]; first compound 50 µM): 0.6 | relative viability ([21]; first compound 158.11 µM): 0.216 | relative viability ([21]; first compound 500 µM): 0.12 | relative viability ([22]; first compound 5 µM): 0.633 | relative viability ([22]; first compound 15.81 µM): 0.633 | relative viability ([22]; first compound 50 µM): 0.619 | relative viability ([22]; first compound 158.11 µM): 0.494 | relative viability ([22]; first compound 500 µM): 0.479
